Like-named read-outs stand apart in the source and are kept apart here.
How the values were obtained:
[1] = Activity tests: necessary administration quantities; type: in vivo; details: Form: Free (oral); rats/mice
Description: (§1) Toxicity and Activity Tests

Toxicity tests = type: in vivo; details: rats/mice; form not stated
Description: as §1

[2] = tested on: Entamoeba histolytica HM-1:IMSS; assay: Cytotoxicity of alkylphosphocholines on amebae (Trypan blue count, Probit); type: cell-based; details: strain HM-1:IMSS, read-out: ED50 (the source's name)
Experimental: (§2) Entamoeba histolytica SFL-3 and HM-1: IMSS (American Type Culture collection, order number ATCC 30459), pathogenic amebae of zymodeme II, were cultured, at 37° C., in TYI-S-33 medium (Diamond et al., Trans. Roy. Soc. Trop. Med. Hyg. 72: 431-432 (1978)) containing 10% bovine serum. The cultures of SFL-3 were kept in 100 ml glass bottles while the cultures of HM-1:IMSS were kept in 50 ml tissue culture flasks.
(§3) 38 h cultures of E histolytica were used for measuring the cytotoxicity of the alkylphosphocholines. The amebae were released from the culture vessels by shaking, centrifuged down for 3 min at 2 000 revolutions per minute and 4° C. in a Heraeus Minifuge RF, resuspended in 20 ml of TYI-S-33 medium and counted in a hemocytometer chamber.
(§4) For each measurement, in each case 8-10×10^5 amebae were provided in 12 ml of medium in Pyrex tubes fitted with a screw closure and the alkylphosphocholine was added in a volume of 660 μl. […] (w/v) ethanol in double-distilled water was used for dissolving hexadecylphosphocholine and octadecylphosphocholine, while double-distilled water on its own was used for all the other substances and the liposomal preparations. 5% ethanol or double-distilled water was correspondingly added to the control cultures. The concentrations of alkylphosphocholines employed were 100 μM, 50 μM, 20 μM, 10 μM and 5 μM. Six cultures were in each case prepared for each of the concentrations.
(§5) The effect of the alkylphosphocholines was determined after 24 h and after 48 h. For this, in each case three of the cultures were shaken up and transferred into in each case three plastic centrifuge tubes. The amebae were centrifuged down for 5 min at 2 200 rpm and 4° C. and suspended in a final volume of 1 ml in a 1:1 mixture of Trypan blue (Sigma) and PBS. Each of the samples was then counted in the hemocytometer and the number of living and dead, stained blue due to having taken up the die, amebae was recorded.
(§6) The results were analyzed using the “Probit” program (Wernsdorfer and Wernsdorfer, Mitt. Österr. Ges. Tropenmed. Parasitol. 17:221-228 (1995)).
(§7) The tests were carried out as described above. The E. histolytica strains SFL-3 and HM-1:IMSS were tested. In each case six cultures were prepared for each concentration of alkylphosphocholine in pure or liposomal form. Three of the cultures were counted after […] and three further cultures were counted after 48 h. In each case two independent experiments were carried out for each of the two strains.

[3] = tested on: Entamoeba histolytica SFL-3; assay: as above; type: cell-based; details: read-out: ED50 (the source's name)
Experimental: as §2, §3, §4, §5, §6, §7

SMILES | Necessary administration quantities [1] [µmol] | Toxicity (Toxicity tests) [µmol] | EC50 ([2]; day 1 (24 h)) [µM] | EC50 ([2]; day 2 (48 h)) [µM] | EC50 ([3]; strain SFL-3, day 1 (24 h)) [µM] | EC50 ([3]; strain SFL-3, day 2 (48 h)) [µM]
CCCCCCCCCCCCCCCCOP(=O)([O-])OCC[N+](C)(C)C [APC 1, hexadecylphosphocholine] | 60 | 90 | 94 | 83 | 88 | 50
CCCCCCCCCCCCCCCCCCOP(=O)([O-])OCC[N+](C)(C)C [APC 2, octadecylphosphocholine] | – | – | 80 | 70 | 36 | 24
CCCCCCCC/C=C\CCCCCCCCOP(=O)([O-])OCC[N+](C)(C)C [APC 9, oleylphosphocholine] | 20 | – | 121 | 80 | 32 | 16
CCCCCCCC/C=C\CCCCCCCCCOP(=O)([O-])OCC[N+](C)(C)C [APC 10, (Z)-10-nonadecenylphosphocholine] | – | – | 112 | 87 | 24 | 20
CCCCCCCC/C=C\CCCCCCCCCCCCOP(=O)([O-])OCC[N+](C)(C)C [Erucyl-PC] | 100 | – | – | – | – | –
CCCCCCCCCCCCCCCCCCCOP(=O)([O-])OCC[N+](C)(C)C [Nonadecyl-PC] | 20 | – | – | – | – | –

Source: US20030199476A1, “Medicament for the stimulation of leucopoiesis and treatment of tumour and protozoan diseases acarinosis and arthropod-borne diseases and a method for production thereof” (priority 2000, published 2003)
